Test results: patent publication US20090305980A1, “Methods and Compositions Related to TR4” (UNIVERSITY OF ROCHESTER, priority 2006, published 2009)

Experiments:
[1] = system: wt MEFs; assay: Cellular ROS levels by flow cytometry in wt MEFs; assay type: cell-based, mouse
Procedure: (§1) MEFs from wt and TR4 KO were treated with 200 μM H2O2 for 30 min in the presence/absence of 100 nM of α-tocopherol, and the cellular ROS levels were then measured by flow cytometric analysis. The relative ROS levels were calculated by comparing with untreated MEFs from wt and TR4 KO independently.
Replicative senescence has been employed as a cellular model for aging and it occurs primarily in response to oxidative DNA damage (Campisi, J. et al. (2005) Cell, 120: 513-522). Wt MEFs grow well for approximately 2-3 doublings (P2-3) before decreasing in proliferation, and after 8-10 doublings, the cell senescence occurs. In contrast, TR4 KO MEFs proliferation drastically decline after P4 (FIG. 4A). […] The amounts of cellular ROS in MEFs were determined by flow cytometry using DCFH-DA. […] When MEFs were exposed to H2O2 and measured cellular ROS levels, the amounts of fluorescence in both in wt and TR4 KO increased after H2O2 treatment; TR4 KO MEFs accumulated more ROS than wt MEFs. […]
To determine if TR4 is a mediator for non-enzymatic antioxidants, including vitamin C, vitamin E, β-carotene, and selenium, to suppress ROS production in the cells, cellular ROS levels are examined in LMWA-treated MEFs to antagonize oxidative stress. MEFs from TR4 KO and wt are treated with LMWA with/without H2O2 oxidative stress challenge as ROS levels are measured. […]

[2] = system: TR4 KO MEFs; assay: Cellular ROS levels by flow cytometry in TR4 KO MEFs; assay type: cell-based, mouse
Procedure: as §1
Replicative senescence has been employed as a cellular model for aging and it occurs primarily in response to oxidative DNA damage (Campisi, J. et al. (2005) Cell, 120: 513-522). Wt MEFs grow well for approximately 2-3 doublings (P2-3) before decreasing in proliferation, and after 8-10 doublings, the cell senescence occurs. In contrast, TR4 KO MEFs proliferation drastically decline after P4 (FIG. 4A). ROS contribute to cells senescence, and how cells respond to oxidative stress would determine the life span. The amounts of cellular ROS in MEFs were determined by flow cytometry using DCFH-DA. […] When MEFs were exposed to H2O2 and measured cellular ROS levels, the amounts of fluorescence in both in wt and TR4 KO increased after H2O2 treatment; TR4 KO MEFs accumulated more ROS than wt MEFs.
To test if TR4 is involved in low molecular weight antioxidant (LMWA), such as vitamin E anti-oxidant effects, fibroblasts from TR4 KO and wt were challenged with 250 μM H2O2 in the presence of 100 nM α-tocopherol and VES.
To determine if TR4 is a mediator for non-enzymatic antioxidants, including vitamin C, vitamin E, β-carotene, and selenium, to suppress ROS production in the cells, cellular ROS levels are examined in LMWA-treated MEFs to antagonize oxidative stress. MEFs from TR4 KO and wt are treated with LMWA with/without H2O2 oxidative stress challenge as ROS levels are measured. The ones that lose its anti-oxidant activity in KO MEFs but not wt MEFs are the candidates. […] Therefore, TR4 is mediated by some LMWAs, such as vitamin E, to suppress cellular ROS production. Herein, the anti-ROS effects are compared on TR4 KO vs wt MEFs in response to other LMWAs. The focus is on how TR4 regulates vitamin E and the other LMWA that lost anti-ROS response in TR4 KO MEFs.

SMILES: Cc1c(C)c2c(c(C)c1O)CC[C@@](C)(CCC[C@H](C)CCC[C@H](C)CCCC(C)C)O2 [vitamin E, α-tocopherol]
- intrinsic and exogenous ROS production ([1]; wt MEFs, 10^−7 M vitamin E): can reduce
- ROS (vitamin E-mediated anti-oxidant effect) ([1]; wt fibroblasts, 250 μM H2O2, 100 nM α-tocopherol and VES): reduction of ROS
- intrinsic and exogenous ROS production ([2]; KO MEFs, 10^−7 M vitamin E): not
- vitamin E anti-ROS effects (relative ROS levels) ([2]; TR4KO MEFs, 200 μM H2O2 for 30 min, 100 nM α-tocopherol): loss of vitamin E anti-ROS effects
- ROS (vitamin E-mediated anti-oxidant effect) ([2]; TR4 KO fibroblasts, 250 μM H2O2, 100 nM α-tocopherol and VES): lost the vitamin E-mediated anti-oxidant effect
